Laboratory results published in ChEMBL document CHEMBL4325871 (Eur J Med Chem, 2019).

Assays:
[1] = target: T1, Serine/threonine-protein kinase Chk1 (Homo sapiens) (UniProt O14757); test: Inhibition of CHK1 phosphorylation at S317 residue in human FOLFOX-resistant HCT116 cells after 24 hrs by Western blot analysis
T1 sequence (whole entry): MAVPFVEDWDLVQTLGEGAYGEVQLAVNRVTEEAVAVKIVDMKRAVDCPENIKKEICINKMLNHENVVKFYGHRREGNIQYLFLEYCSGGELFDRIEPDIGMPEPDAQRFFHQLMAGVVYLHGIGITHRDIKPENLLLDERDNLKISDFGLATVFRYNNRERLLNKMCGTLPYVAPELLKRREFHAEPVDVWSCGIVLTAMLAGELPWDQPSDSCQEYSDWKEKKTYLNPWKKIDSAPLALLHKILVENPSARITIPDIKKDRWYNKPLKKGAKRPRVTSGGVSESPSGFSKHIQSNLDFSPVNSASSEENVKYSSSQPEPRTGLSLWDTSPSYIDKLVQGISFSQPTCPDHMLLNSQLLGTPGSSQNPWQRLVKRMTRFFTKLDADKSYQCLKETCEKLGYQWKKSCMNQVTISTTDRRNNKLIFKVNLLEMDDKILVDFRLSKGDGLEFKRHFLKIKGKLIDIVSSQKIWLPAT

[2] = target: T1, Serine/threonine-protein kinase Chk1 (Homo sapiens); test: Inhibition of CHK1 phosphorylation at S296 residue in human FOLFOX-resistant HCT116 cells after 24 hrs by Western blot analysis
[3] = target: T1, Serine/threonine-protein kinase Chk1 (Homo sapiens); test: Inhibition of CHK1 phosphorylation at S345 residue in human FOLFOX-resistant HCT116 cells after 24 hrs by Western blot analysis
[4] = target: Mitogen-activated protein kinase kinase kinase 5 (Homo sapiens) (UniProt Q99683); test: Inhibition of human ASK1 assessed as residual activity at 1 uM using MBP as substrate by [gamma-33P]-ATP assay relative to control
[5] = target: Calcium/calmodulin-dependent protein kinase type 1B (Homo sapiens) (UniProt Q6P2M8); test: Inhibition of human CAMK1B assessed as residual activity at 1 uM using KKALRRQETVDAL as substrate by [gamma-33P]-ATP assay relative to control
[6] = target: CDC7/DBF4 (Cell division cycle 7-related protein kinase/Activator of S phase kinase) (Homo sapiens) (UniProt Q9UBU7+O00311); test: Inhibition of human CDC7/DBF4 assessed as residual activity at 1 uM using KTFCGTPEYLAPEVRREPRILSEEEQEMFRDFDYIADWC as substrate by [gamma-33P]-ATP assay relative to control; type: protein-complex assay
[7] = target: Dual specificity protein kinase CLK3 (Homo sapiens) (UniProt P49761); test: Inhibition of human CLK3 assessed as residual activity at 1 uM using MBP as substrate by [gamma-33P]-ATP assay relative to control
[8] = target: Dual specificity protein kinase CLK4 (Homo sapiens) (UniProt Q9HAZ1); test: Inhibition of human CLK4 assessed as residual activity at 1 uM using MBP as substrate by [gamma-33P]-ATP assay relative to control
[9] = target: Serine/threonine-protein kinase 17A (Homo sapiens) (UniProt Q9UEE5); test: Inhibition of human DRAK1 assessed as residual activity at 1 uM using KKLNRTLSFAEPG as substrate by [gamma-33P]-ATP assay relative to control
[10] = target: Serine/threonine-protein kinase DCLK2 (Homo sapiens) (UniProt Q8N568); test: Inhibition of human DCAMKL2 assessed as residual activity at 1 uM using KKLNRTLSFAEPG as substrate by [gamma-33P]-ATP assay relative to control
[11] = target: Dual specificity tyrosine-phosphorylation-regulated kinase 1A (Homo sapiens) (UniProt Q13627); test: Inhibition of human DYRK1A assessed as residual activity at 1 uM using RRRFRPASPLRGPPK as substrate by [gamma-33P]-ATP assay relative to control
[12] = target: Ephrin type-B receptor 3 (Homo sapiens) (UniProt P54753); test: Inhibition of human EPHB3 assessed as residual activity at 1 uM using poly[Glu:Tyr] (4:1) as substrate by [gamma-33P]-ATP assay relative to control
[13] = target: Rhodopsin kinase GRK1 (Homo sapiens) (UniProt Q15835); test: Inhibition of human GRK1 assessed as residual activity at 1 uM using casein as substrate by [gamma-33P]-ATP assay relative to control
[14] = target: Insulin receptor (Homo sapiens) (UniProt P06213); test: Inhibition of human IR assessed as residual activity at 1 uM using poly[Glu:Tyr] (4:1) as substrate by [gamma-33P]-ATP assay relative to control
[15] = target: Interleukin-1 receptor-associated kinase 4 (Homo sapiens) (UniProt Q9NWZ3); test: Inhibition of human IRAK4 assessed as residual activity at 1 uM using MBP as substrate by [gamma-33P]-ATP assay relative to control
[16] = target: Tyrosine-protein kinase JAK1 (Homo sapiens) (UniProt P23458); test: Inhibition of human JAK1 assessed as residual activity at 1 uM using poly[Glu:Tyr] (4:1) as substrate by [gamma-33P]-ATP assay relative to control
[17] = target: Dual specificity mitogen-activated protein kinase kinase 1 (Homo sapiens) (UniProt Q02750); test: Inhibition of human MEK1 assessed as residual activity at 1 uM using ERK2 as substrate by [gamma-33P]-ATP assay relative to control
[18] = target: Mitogen-activated protein kinase kinase kinase 3 (Homo sapiens) (UniProt Q99759); test: Inhibition of human MEKK3 assessed as residual activity at 1 uM using MBP as substrate by [gamma-33P]-ATP assay relative to control
[19] = target: MAP kinase-interacting serine/threonine-protein kinase 2 (Homo sapiens) (UniProt Q9HBH9); test: Inhibition of human MNK2 assessed as residual activity at 1 uM using MBP as substrate by [gamma-33P]-ATP assay relative to control
[20] = target: Serine/threonine-protein kinase Nek3 (Homo sapiens) (UniProt P51956); test: Inhibition of human NEK3 assessed as residual activity at 1 uM using MBP as substrate by [gamma-33P]-ATP assay relative to control
[21] = target: Platelet-derived growth factor receptor beta (Homo sapiens) (UniProt P09619); test: Inhibition of human PDGFRbeta assessed as residual activity at 1 uM using poly[Glu:Tyr] (4:1) as substrate by [gamma-33P]-ATP assay relative to control
[22] = target: Protein kinase C epsilon type (Homo sapiens) (UniProt Q02156); test: Inhibition of human PKCepsilon assessed as residual activity at 1 uM using ERMRPRKRQGSVRRRV as substrate by [gamma-33P]-ATP assay relative to control
[23] = target: Proto-oncogene tyrosine-protein kinase ROS (Homo sapiens) (UniProt P08922); test: Inhibition of human ROS assessed as residual activity at 1 uM using KKKSPGEYVNIEFG as substrate by [gamma-33P]-ATP assay relative to control
[24] = target: Serine/threonine-protein kinase 33 (Homo sapiens) (UniProt Q9BYT3); test: Inhibition of human STK33 assessed as residual activity at 1 uM using MBP as substrate by [gamma-33P]-ATP assay relative to control

Chain of Rhodopsin kinase GRK1 (Homo sapiens) (Q15835 whole entry): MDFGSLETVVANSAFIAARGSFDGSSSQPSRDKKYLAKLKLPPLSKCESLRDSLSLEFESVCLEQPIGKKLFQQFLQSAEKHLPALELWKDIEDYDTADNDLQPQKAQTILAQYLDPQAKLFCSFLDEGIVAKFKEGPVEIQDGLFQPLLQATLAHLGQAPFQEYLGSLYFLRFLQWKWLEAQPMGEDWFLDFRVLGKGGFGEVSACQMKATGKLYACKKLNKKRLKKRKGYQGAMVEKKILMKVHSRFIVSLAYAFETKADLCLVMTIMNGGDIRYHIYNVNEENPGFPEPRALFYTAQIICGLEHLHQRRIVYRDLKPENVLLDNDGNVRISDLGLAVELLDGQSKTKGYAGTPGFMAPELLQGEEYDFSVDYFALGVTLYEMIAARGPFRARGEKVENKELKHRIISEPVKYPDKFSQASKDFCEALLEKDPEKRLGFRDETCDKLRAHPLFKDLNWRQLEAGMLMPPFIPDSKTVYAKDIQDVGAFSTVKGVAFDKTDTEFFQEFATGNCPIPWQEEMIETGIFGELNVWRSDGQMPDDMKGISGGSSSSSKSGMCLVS
Chain of Interleukin-1 receptor-associated kinase 4 (Homo sapiens) (Q9NWZ3 whole entry): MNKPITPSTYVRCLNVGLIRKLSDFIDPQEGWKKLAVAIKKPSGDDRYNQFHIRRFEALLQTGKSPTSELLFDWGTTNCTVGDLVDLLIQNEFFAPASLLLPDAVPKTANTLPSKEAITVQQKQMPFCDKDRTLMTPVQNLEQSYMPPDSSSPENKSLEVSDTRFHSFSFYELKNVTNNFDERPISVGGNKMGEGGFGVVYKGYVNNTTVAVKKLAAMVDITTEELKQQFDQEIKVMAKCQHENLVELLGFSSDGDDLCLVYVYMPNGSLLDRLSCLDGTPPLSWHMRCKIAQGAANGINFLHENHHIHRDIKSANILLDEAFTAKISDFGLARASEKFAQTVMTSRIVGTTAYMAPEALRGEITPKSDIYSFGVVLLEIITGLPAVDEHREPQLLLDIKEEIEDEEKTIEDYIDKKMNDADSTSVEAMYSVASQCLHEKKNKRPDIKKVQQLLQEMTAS
Chain of Mitogen-activated protein kinase kinase kinase 5 (Homo sapiens) (Q99683 whole entry): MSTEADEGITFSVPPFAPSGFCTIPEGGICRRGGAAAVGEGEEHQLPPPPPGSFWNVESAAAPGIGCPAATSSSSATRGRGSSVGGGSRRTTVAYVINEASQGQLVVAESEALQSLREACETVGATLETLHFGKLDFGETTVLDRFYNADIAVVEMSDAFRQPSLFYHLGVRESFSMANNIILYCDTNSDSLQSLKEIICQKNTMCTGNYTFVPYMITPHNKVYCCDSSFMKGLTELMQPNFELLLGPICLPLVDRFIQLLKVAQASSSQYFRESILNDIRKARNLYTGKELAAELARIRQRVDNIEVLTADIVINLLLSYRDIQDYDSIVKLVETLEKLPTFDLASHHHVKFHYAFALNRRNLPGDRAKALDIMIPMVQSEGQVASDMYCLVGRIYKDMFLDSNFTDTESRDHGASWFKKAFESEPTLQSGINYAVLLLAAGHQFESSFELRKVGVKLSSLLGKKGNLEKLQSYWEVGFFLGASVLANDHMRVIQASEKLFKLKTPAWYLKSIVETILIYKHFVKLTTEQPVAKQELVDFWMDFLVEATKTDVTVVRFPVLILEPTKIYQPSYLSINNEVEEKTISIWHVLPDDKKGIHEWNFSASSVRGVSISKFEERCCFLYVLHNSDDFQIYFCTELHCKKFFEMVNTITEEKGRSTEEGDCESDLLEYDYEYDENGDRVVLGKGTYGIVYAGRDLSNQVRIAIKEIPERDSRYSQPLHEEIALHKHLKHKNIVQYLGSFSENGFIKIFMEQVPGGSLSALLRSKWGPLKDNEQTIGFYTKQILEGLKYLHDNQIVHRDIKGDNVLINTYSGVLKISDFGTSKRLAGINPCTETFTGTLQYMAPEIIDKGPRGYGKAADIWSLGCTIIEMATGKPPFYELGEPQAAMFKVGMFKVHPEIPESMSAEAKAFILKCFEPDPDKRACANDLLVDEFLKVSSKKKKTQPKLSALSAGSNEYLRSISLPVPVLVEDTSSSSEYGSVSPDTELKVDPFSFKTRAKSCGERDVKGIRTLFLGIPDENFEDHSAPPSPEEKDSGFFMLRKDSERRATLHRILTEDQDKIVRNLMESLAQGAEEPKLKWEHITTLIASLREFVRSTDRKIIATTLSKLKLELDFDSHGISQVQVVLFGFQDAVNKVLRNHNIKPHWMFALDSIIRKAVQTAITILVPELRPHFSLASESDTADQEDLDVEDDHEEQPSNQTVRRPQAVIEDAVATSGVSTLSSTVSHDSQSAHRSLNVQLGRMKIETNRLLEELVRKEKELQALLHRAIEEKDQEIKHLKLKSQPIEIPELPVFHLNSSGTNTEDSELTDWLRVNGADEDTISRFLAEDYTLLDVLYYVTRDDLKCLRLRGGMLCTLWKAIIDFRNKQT
Chain of Calcium/calmodulin-dependent protein kinase type 1B (Homo sapiens) (Q6P2M8 whole entry): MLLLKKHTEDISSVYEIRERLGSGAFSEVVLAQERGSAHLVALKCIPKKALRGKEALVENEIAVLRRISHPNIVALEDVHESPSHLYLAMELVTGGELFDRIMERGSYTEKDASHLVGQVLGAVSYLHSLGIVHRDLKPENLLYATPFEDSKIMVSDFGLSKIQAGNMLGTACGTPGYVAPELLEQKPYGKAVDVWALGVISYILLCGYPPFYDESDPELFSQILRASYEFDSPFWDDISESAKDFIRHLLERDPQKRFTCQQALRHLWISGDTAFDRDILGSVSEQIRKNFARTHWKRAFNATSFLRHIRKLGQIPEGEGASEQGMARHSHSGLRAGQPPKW
Chain of Dual specificity protein kinase CLK4 (Homo sapiens) (Q9HAZ1 whole entry, looked up): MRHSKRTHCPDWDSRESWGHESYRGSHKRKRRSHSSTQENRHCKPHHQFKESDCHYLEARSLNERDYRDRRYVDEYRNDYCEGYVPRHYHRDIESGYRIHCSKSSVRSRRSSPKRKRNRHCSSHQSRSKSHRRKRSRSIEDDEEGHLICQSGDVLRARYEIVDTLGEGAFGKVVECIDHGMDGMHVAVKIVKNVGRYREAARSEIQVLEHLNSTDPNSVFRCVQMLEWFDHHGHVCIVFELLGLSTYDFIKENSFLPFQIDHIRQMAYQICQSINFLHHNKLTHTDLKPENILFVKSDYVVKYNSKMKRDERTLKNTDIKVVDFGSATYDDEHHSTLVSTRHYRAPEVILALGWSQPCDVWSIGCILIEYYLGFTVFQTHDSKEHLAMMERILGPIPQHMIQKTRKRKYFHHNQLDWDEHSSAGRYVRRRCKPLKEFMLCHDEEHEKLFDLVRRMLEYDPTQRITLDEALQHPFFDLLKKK
Chain of Insulin receptor (Homo sapiens) (P06213 28-758 limits assumed): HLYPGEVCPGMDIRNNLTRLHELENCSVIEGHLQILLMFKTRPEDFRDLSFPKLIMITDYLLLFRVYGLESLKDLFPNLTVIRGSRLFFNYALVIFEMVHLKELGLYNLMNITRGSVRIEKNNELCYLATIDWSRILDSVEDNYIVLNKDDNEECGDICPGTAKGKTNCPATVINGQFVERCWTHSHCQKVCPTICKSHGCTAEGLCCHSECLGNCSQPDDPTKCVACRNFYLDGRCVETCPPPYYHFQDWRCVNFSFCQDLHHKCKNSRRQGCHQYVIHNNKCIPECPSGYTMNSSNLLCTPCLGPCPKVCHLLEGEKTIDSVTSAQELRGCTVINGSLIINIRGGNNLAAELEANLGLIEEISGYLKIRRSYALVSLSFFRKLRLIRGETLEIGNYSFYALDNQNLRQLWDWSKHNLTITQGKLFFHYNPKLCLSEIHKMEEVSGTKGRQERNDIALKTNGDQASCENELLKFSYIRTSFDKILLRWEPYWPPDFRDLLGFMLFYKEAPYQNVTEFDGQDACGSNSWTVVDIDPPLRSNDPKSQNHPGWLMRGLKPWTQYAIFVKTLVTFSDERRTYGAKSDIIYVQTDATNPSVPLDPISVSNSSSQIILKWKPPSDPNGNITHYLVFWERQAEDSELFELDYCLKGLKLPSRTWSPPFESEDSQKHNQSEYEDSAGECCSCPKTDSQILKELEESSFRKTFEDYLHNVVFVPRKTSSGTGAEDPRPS
Chain of Insulin receptor (Homo sapiens) (P06213 763-1382 limits assumed): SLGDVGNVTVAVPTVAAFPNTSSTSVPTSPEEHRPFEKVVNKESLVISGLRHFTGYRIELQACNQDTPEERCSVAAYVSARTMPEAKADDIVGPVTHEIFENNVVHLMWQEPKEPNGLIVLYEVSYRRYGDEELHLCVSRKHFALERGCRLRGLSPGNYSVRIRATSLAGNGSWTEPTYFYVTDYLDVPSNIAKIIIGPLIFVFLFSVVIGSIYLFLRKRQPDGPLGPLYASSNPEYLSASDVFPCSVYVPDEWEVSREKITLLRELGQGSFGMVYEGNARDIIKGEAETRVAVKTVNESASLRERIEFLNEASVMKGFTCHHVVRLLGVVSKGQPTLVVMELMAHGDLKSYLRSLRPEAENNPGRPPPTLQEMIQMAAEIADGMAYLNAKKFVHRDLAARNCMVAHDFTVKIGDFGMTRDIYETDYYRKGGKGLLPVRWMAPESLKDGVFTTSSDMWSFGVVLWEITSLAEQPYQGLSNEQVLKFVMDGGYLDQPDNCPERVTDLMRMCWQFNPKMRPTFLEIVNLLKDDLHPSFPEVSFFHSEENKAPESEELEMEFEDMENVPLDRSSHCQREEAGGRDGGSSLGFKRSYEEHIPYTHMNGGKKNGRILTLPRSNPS
Chain of Serine/threonine-protein kinase 17A (Homo sapiens) (Q9UEE5 whole entry): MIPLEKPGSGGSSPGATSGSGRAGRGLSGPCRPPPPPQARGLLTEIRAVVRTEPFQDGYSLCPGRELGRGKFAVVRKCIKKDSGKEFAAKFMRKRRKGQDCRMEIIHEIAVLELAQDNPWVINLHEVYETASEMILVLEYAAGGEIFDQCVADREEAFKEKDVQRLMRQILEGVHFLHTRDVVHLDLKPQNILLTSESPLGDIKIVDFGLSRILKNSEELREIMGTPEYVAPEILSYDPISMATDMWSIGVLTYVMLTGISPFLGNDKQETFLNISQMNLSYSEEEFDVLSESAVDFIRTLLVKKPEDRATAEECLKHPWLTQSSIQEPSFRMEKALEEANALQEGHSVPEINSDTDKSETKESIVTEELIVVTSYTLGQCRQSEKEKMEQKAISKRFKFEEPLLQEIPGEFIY

Structure (SMILES) | inhibition [1] | inhibition [2] | inhibition [3] | Activity [4] | Activity [5] | Activity [6] | Activity [7] | Activity [8] | Activity [9] | Activity [10] | Activity [11] | Activity [12] | Activity [13] | Activity [14] | Activity [15] | Activity [16] | Activity [17] | Activity [18] | Activity [19] | Activity [20] | further results
C(=C\c1ccccc1)/C[N+]12CN3CN(CN(C3)C1)C2 | Dose-dependent effect | Dose-dependent effect | Dose-dependent effect | 89.4 to 90.7% | 80.5 to 87.2% | 94 to 94.4% | 96.2 to 96.9% | 93.1 to 93.2% | 92.8 to 95.6% | 89.2 to 89.7% | 95.8 to 96.4% | 94 to 96% | 88.5 to 88.9% | 96 to 96.4% | 92.1 to 96.8% | 92.4 to 92.6% | 93 to 94.8% | 117 to 119% | 93 to 95.7% | 88.4 to 92.3% | Activity [21]: 91.9 to 93.1%; Activity [22]: 121 to 126%; Activity [23]: 94.4 to 94.8%; Activity [24]: 94.9 to 95.4%
ClC/C=C/C[N+]12CN3CN(CN(C3)C1)C2 | Dose-dependent effect | Dose-dependent effect | Dose-dependent effect | 87.6 to 89% | 87.8 to 88.7% | 93.8 to 95.8% | 92.6 to 95.8% | 86.9 to 91.8% | 90.9 to 92.8% | 92.3 to 92.9% | 95.7 to 95.8% | 93 to 93.5% | 88.2 to 88.7% | 95 to 96.7% | 91.5 to 92.7% | 92.7 to 94.5% | 94.4 to 96.6% | 118 to 123% | 91.2 to 92.6% | 86.9 to 92.5% | Activity [21]: 90.5 to 92%; Activity [22]: 121 to 133%; Activity [23]: 94 to 95.2%; Activity [24]: 86.5 to 88.4%
